How the values were obtained:
[1] = system: purified guinea pig anti-a,DNP-Lys7-10 antibody; conditions: as measured by binding of DNP-OH or DNP-EACA; fluorescence quenching
[2] = system: purified anti-8,e,DNP-Lys8 antibody; format: binding, guinea pig; conditions: cross-reaction of anti-8,ε,DNP-Lys8 antibody with α,DNP-oligolysines

| Structure (SMILES) | contribution of the haptenic group to the total binding energy of a,DNP-Lys9 [1] | contribution to the binding energy of α,DNP-oligolysines [2] [%] |
| --- | --- | --- |
| O=C(O)CCCCCNc1ccc([N+](=O)[O-])cc1[N+](=O)[O-] [DNP-EACA] | about 70% |  |
| O=[N+]([O-])c1ccc(O)c([N+](=O)[O-])c1 [DNP-OH, 2,4,dinitrophenol] | about 70% | 93 |

Source: publication PMC2138933 (The Journal of Experimental Medicine, 1971)
